The molecules below were run against T1, recombinant human LTA4 hydrolase (rhLTA4H) (Homo sapiens, UniProt P09960) (assay: Recombinant human LTA4 hydrolase assay for LTA4 hydrolase inhibitor activity). Details: recombinant human LTA4H, LTB4 quantified by enzyme-linked immunoassay; average of one to three determinations; read-out: IC50.
T1 construct: made in house; host or cells: Spodoptera frugiperda (Sf-9) cells, baculovirus (pFastBac1)
T1 sequence (P09960 1-611): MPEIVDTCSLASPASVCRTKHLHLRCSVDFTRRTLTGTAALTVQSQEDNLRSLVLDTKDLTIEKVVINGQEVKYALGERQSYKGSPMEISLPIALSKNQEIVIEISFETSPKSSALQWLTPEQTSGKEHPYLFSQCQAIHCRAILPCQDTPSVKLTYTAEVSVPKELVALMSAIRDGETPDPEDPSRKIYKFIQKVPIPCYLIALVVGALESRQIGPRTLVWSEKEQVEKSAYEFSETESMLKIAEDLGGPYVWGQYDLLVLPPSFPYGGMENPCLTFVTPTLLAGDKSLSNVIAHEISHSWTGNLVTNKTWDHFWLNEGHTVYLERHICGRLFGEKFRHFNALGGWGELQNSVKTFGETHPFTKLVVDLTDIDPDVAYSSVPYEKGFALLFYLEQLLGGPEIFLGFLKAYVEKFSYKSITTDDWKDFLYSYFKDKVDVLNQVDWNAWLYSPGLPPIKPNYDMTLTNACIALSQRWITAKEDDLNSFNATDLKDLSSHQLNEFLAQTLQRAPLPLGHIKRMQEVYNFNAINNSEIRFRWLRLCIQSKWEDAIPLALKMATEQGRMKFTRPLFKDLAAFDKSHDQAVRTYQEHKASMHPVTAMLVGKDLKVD
Type: biochemical
Procedure: Recombinant Human LTA4 Hydrolase Assay for LTA4 Hydrolase Inhibitor Activity
Compounds of the present invention were tested for LTA4 hydrolase inhibitor activity against recombinant human LTA4 hydrolase (rhLTA4H). Vectors were prepared and used to express rhLTA4H essentially as follows: LTA4 hydrolase encoding DNA was amplified by polymerase chain reaction (PCR) using a human placental cDNA library as a template. Oligonucleotide primers for the PCR reaction were based on the 5′-end, and the complement of the 3′-end, of the published nucleotide sequence for the coding region of the human LTA4 hydrolase gene (C. D. Funk et al., Proc. Natl. Acad. Sci. USA 1987, 84:6677-6681). The amplified […] DNA fragment encoding LTA4 hydrolase was isolated and cloned into the pFastBac1 vector (Invitrogen). Recombinant baculovirus was generated as described by the manufacturer, and used to infect Spodoptera frugiperda (Sf-9) cells. Recombinant LTA4 hydrolase enzyme was purified from the infected Sf-9 cells essentially as described by J. K. Gierse et al. (Protein Expr. Purif. 1993, 4(5):358-366). The purified enzyme solution was adjusted to contain 0.29 mg/mL LTA4 hydrolase, 50 mM Tris (pH 8.0),150 mM NaCl, 5 mM dithiothreitol, 50% glycerol, and EDTA-free Complete protease inhibitor cocktail (Roche). The specific activity of the enzyme was about 3.8 μmol/min/mg.
LTA4 substrate was prepared from the methyl ester of LTA4 (Cayman Chemical) by treatment with 67 equiv. of NaOH under nitrogen at rt for 40 min. The LTA4 substrate in its free acid form was kept frozen at −80° C. until needed. Each compound was diluted to different concentrations in assay buffer (0.1 M potassium phosphate (pH 7.4), 5 mg/mL fatty acid free BSA) containing 10% DMSO. A 25-μL aliquot of each compound dilution was incubated for 10 min at rt with an equal volume of assay buffer containing 36 ng of recombinant human LTA4H. The solution was then adjusted to 200 μL with assay buffer. LTA4 (free acid) was thawed and diluted in assay buffer to a concentration of 357 ng/mL, and 25 μL (9 ng) of LTA4 substrate was added to the reaction mixture (total volume=225 μL) at time zero. Each reaction was carried out at rt for 10 min. The reaction was stopped by diluting 10 μL of the reaction mixture with 200 μL of assay buffer. LTB4 was quantifiedin the diluted sample by a commercially available enzyme-linked immunoassay (Cayman Chemical Co.), as recommended by the manufacturer. Positive controls, under essentially identical conditions but without addition of an inhibitor compound, and negative controls, containing all assay components except enzyme, were routinely run in each experiment. IC50 values were determined by fitting the activity data at different compound concentrations to a 4-parameter equation using the Grafit program (Erithacus software).
The IC50 values presented in the table below should be expected to fall within the typical three-fold variability of assays of this type. The values presented here are, in general, an average of one to three determinations.

| Compound | IC50 [µM] |
| --- | --- |
| O=C(Nc1ccccc1)Oc1ccc(OCCN2CCC(O)(c3ccc(Cl)c(C(F)(F)F)c3)CC2)cc1 [Example 54, Phenyl-carbamic acid 4-{2-[4-(4-chloro-3-trifluoromethyl-phenyl)-4-hydroxy-piperidin-1-yl]-ethoxy}-phenyl ester] | 0.007 |
| O=C(Nc1ccccc1)Oc1ccc(CCN2CCCCCC2)cc1 [Example 61, Phenyl-carbamic acid 4-(2-azepan-1-yl-ethyl)-phenyl ester] | 0.002 |
| Oc1ccc(CCOc2ccc(OCCN3CCCCC3)cc2)cc1 [Example 74, 4-{2-[4-(2-Piperidin-1-yl-ethoxy)-phenoxy]-ethyl}-phenol] | 0.05 |
| CCN(CCc1ccc(OCC(O)c2ccccc2)cc1)C1CCCCC1 (stereo not shown) [Example 73, 2-{4-[2-(Cyclohexyl-ethyl-amino)-ethyl]-phenoxy}-1-phenyl-ethanol] | 0.01 |
| O=C(Nc1ccc(O)cc1)Oc1ccc(OCCN2CCC(O)(c3ccccc3)CC2)cc1 [Example 39, (4—hydroxy-phenyl)-carbamic acid 4-[2-(4-hydroxy-4-phenyl-piperidin-1-yl)-ethoxy]-phenyl ester] | 0.0004 |
| O=C(Nc1ccccc1)Oc1ccc(OCCN2CCC(Cc3ccccc3)CC2)cc1 [Example 50, Phenyl-carbamic acid 4-[2-(4-benzyl-piperidin-1-yl)-ethoxy]-phenyl ester] | 0.021 |
| CCCCN(CCCC)CCc1ccc(OC(=O)Nc2ccccc2)cc1 [Example 63, Phenyl-carbamic acid 4-(2-dibutylamino-ethyl)-phenyl ester] | 0.0006 |
| c1ccc(CCCCOc2ccc(CN3CCCCC3)cc2)cc1 [Example 98, 1-[4-(4-Phenyl-butoxy)-benzyl]-piperidine] | 0.167 |
| O=C(COc1ccc(CCN2CCC(N3CCCCC3=O)CC2)cc1)c1ccccc1 [Example 26, 1′-{2-[4-(2-Oxo-2-phenyl-ethoxy)-phenyl]-ethyl}-[1,4′]bipiperidinyl-2-one] | 0.343 |
| COC(=O)C1CCN(CCc2ccc(OCC(=O)c3ccccc3)cc2)CC1 [Example 75, 1-{2-[4-(2-Oxo-2-phenyl-ethoxy)-phenyl]-ethyl}-piperidine-4-carboxylic acid methyl ester] | 0.042 |
| O=C(Oc1ccc(OCCN2CCCCC2)cc1)c1cc2ccccc2[nH]1 [Example 23, 1H-Indole-2-carboxylic acid 4-(2-piperidin-1-yl-ethoxy)-phenyl ester] | 0.075 |
| O=C1CCCCN1C1CCN(CCc2ccc(OCC(O)c3ccccc3)cc2)CC1 (stereo not shown) [Example 27, 1′-{2-[4-(2-Hydroxy-2-phenyl-ethoxy)-phenyl]-ethyl}-[1,4′]bipiperidinyl-2-one] | 0.004 |
| O=C(Nc1ccccc1)Oc1ccc(CCCN2CCCCC2)cc1 [Example 37, Phenyl-carbamic acid 4-(3-piperidin-1-yl-propyl)-phenyl ester] | 0.015 |
| CCN(CCc1ccc(OC(=O)Nc2ccccc2)cc1)C1CCCCC1 [Example 59, Phenyl-carbamic acid 4-[2-(cyclohexyl-ethyl-amino)-ethyl]-phenyl ester] | 0.0006 |
| NC(=O)C1CCN(CCc2ccc(OCC(O)c3ccccc3)cc2)CC1 (stereo not shown) [Example 78, 1-{2-[4-(2-Hydroxy-2-phenyl-ethoxy)-phenyl]-ethyl}-piperidine-4-carboxylic acid amide] | 0.006 |
| O=C(Nc1ccccc1F)Oc1ccc(OCCN2CCCCC2)cc1 [Example 43, (2-Fluoro-phenyl)-carbamic acid 4-(2-piperidin-1-yl-ethoxy)-phenyl ester] | 0.007 |
| O=C(Nc1cccc(Cl)c1)Oc1ccc(OCCN2CCCCC2)cc1 [Example 45, (3-Chloro-phenyl)-carbamic acid 4-(2-piperidin-1-yl-ethoxy)-phenyl ester] | 0.064 |
| Fc1ccccc1CCOc1ccc(OCCN2CCCCC2)cc1 [Example 70, 1-(2-{4-[2-(2-Fluoro-phenyl)-ethoxy]-phenoxy}-ethyl)-piperidine] | 0.1 |
| c1ccc(CCOc2ccc(CCN3CCC(c4c[nH]nn4)CC3)cc2)cc1 [Example 31, 1-[2-(4-Phenethyloxy-phenyl)-ethyl]-4-(1H-[1,2,3]triazol-4-yl)-piperidine] | 0.033 |

The next lines start with the values.

| IC50 [µM] | Compound |
| --- | --- |
| 0.078 | COC(=O)NC1CCN(Cc2ccc(OCCc3ccccc3)cc2)CC1 [Example 115, [1-(4-Phenethyloxy-benzyl)-piperidin-4-yl]-carbamic acid methyl ester] |
| 0.017 | NC(=O)NC1CCN(Cc2ccc(OCCc3ccccc3)cc2)CC1 [Example 114, [1-(4-Phenethyloxy-benzyl)-piperidin-4-yl]-urea] |
| 0.064 | O=C1c2ccccc2CC1Oc1ccc(OCCN2CCCCC2)cc1 (stereo not shown) [Example 126, 2-[4-(2-Piperidin-1-yl-ethoxy)-phenoxy]-indan-1-one] |
| 0.036 | c1ccc(CCOc2ccc(CN3CCCCC3)cc2)cc1 [Example 95, 1-(4-Phenethyloxy-benzyl)-piperidine] |
| 0.005 | CCOC(=O)CCN(CCc1ccc(OCCc2ccccc2)cc1)C1CCCCC1 [Example 87, 3-{Cyclohexyl-[2-(4-phenethyloxy-phenyl)-ethyl]-amino}-propionic acid ethyl ester] |
| 0.035 | NC(=O)NC1CCN(Cc2ccc(OCCCc3ccccc3)cc2)CC1 [Example 122, {1-[4-(3-Phenyl-propoxy)-benzyl]-piperidin-4-yl}-urea] |
| 0.016 | OC1CCN(Cc2ccc(OCCCc3ccccc3)cc2)CC1 [Example 108, 1-[4-(3-Phenyl-propoxy)-benzyl]-piperidin-4-ol] |
| 0.017 | O=C(O)C1CCN(CCOc2ccc(OCCc3ccccc3)cc2)CC1 [Example 86, 1-[2-(4-Phenethyloxy-phenoxy)-ethyl]-piperidine-4-carboxylic acid] |
| 0.195 | CCOC(=O)C1CCN(CCOc2ccc(OCCCc3ccccc3)cc2)CC1 [Example 116, 1-{2-[4-(3-Phenyl-propoxy)-phenoxy]-ethyl}-piperidine-4-carboxylic acid ethyl ester] |
| 0.04 | NC1CCN(Cc2ccc(OCCCc3ccccc3)cc2)CC1 [Example 118, 1-[4-(3-Phenyl-propoxy)-benzyl]-piperidin-4-ylamine] |
| 0.036 | NC(=O)C1CCCN(Cc2ccc(OCCc3ccccc3)cc2)C1 (stereo not shown) [Example 102, 1-(4-Phenethyloxy-benzyl)-piperidine-3-carboxylic acid amide] |
| 0.023 | OC1CCCN(Cc2ccc(OCCCc3ccccc3)cc2)C1 (stereo not shown) [Example 109, 1-[4-(3-Phenyl-propoxy)-benzyl]-piperidin-3-ol] |
| 0.095 | NC(=O)C1CCCN(Cc2ccc(OCCCc3ccccc3)cc2)C1 (stereo not shown) [Example 111, 1-[4-(3-Phenyl-propoxy)-benzyl]-piperidine-3-carboxylic acid amide] |
| 0.184 | O=C(Oc1ccc(OCCN2CCCCC2)cc1)C1Cc2ccccc2C1 [Example 124, Indan-2-carboxylic acid 4-(2-piperidin-1-yl-ethoxy)-phenyl ester] |
| 0.0007 | CC(=O)N1CCC(N(CCC(=O)O)CCc2ccc(OCCc3ccccc3)cc2)CC1 [Example 91, 3-{(1-Acetyl-piperidin-4-yl)-[2-(4-phenethyloxy-phenyl)-ethyl]-amino}-propionic acid] |

Reference: patent publication US20060223792A1, “Phenyl and pyridyl LTA4H modulators” (priority 2005, published 2006)
